Data set [1] concerns TA98. Description: Ames test. It counts as cell-based, Salmonella typhimurium. The note with it: TA98, -S9, 50 μg/plate. On the procedure: (§1) The experiments were performed in triplicate.
A general note: The Ames test detects mutagens through reverse mutation in bacteria.

In data set [2] the test system is TA97a. Kind of data set: Ames test. The class given is cell-based, Salmonella typhimurium. The note with it: -S9, 50 μg/plate. On the procedure:
as §1

Data set [3] relates to Mouse spermatozoa. As to conditions: positive control group, 40 mg/kg cyclophosphamide.
Data set [4] deals with bone marrow polychromatic erythrocytes. Description: Micronucleus experiment of mammalian bone marrow cells. As to conditions: positive control group, 40 mg/kg cyclophosphamide.
Data set [5] concerns mouse bone marrow cells. The note with it: positive control group, 40 mg/kg cyclophosphamide.
In data set [6] the test system is TA100. Description: Ames test. The class given is cell-based, Salmonella typhimurium. As to conditions: TA100, -S9, 1 μg/plate. On the procedure: as §1
Data set [7] has as its system WP2uvApKM101. Description: Ames test. The class given is cell-based, Escherichia coli. On the procedure:
as §1

Regarding `CN(C)c1ccc(N=NS(=O)(=O)O)cc1` [DDT, fenaminosulf], the “Ames test bacterial counts” value in data set [1] is reported as 2,985 ± 76.4; in data set [2] it was 3,451 ± 53.7.

Regarding `O=P1(N(CCCl)CCCl)NCCCO1` (centres unmarked) [Positive, cyclophosphamide], the “Abnormal ratio (%)” value in data set [3] (male ICR mice) was found to be 8.34 ± 0.47%. Further, the “Number of sperm abnormality” value in data set [3] (male ICR mice, of 5 × 1,000 sperms observed) came out at 417. Moreover, in data set [3], the “Abnormal sperms counted ratio (%): Amorphous” value is recorded as 48.33 ± 4.33%, the “Abnormal sperms counted ratio (%): Banana shape” value turned out to be 10.58 ± 1.46%, the “Abnormal sperms counted ratio (%): Kinks tail” value is recorded as 5.76 ± 0.94% and the “Abnormal sperms counted ratio (%): Large round head” value was 9.37 ± 1.03%. In data set [3], the “Abnormal sperms counted ratio (%): No hook” value is given as 10.07 ± 1.23%, the “Abnormal sperms counted ratio (%): Two head” value is given as 5.52 ± 1.36% and the “Abnormal sperms counted ratio (%): Two tail” value is given as 4.84 ± 1.99%. Besides, in data set [4] (Female mice), the “PCE micronucleus (‰)” value was 18.8 ± 1.9 ‰ and the PCE/RBC was 0.5 ± 0.04. Further, in data set [4] (Male mice), the “PCE micronucleus (‰)” value is 18.8 ± 2.6 ‰ and the PCE/RBC was found to be 0.51 ± 0.09. In addition, the “Chromosome aberration (%)” value in data set [5] was 18.6 ± 7.67%. In addition, in data set [5] (of 5 × 100 cells at metaphase), the “Number of cells with chromosome aberration” value turned out to be 93.

Take `COS(C)(=O)=O` [MSM, methyl methanesulfonate]: the “Ames test bacterial counts” value in data set [6] is 3,042 ± 69.3; in data set [7] (WP2uvApKM101, -S9, 1 μg/plate) it was 926 ± 45.3.

As to `Nc1ccc2cc3ccccc3cc2c1` [2-AT, 2-Aminoanthracene], in data set [7] (WP2uvApKM101, +S9, 10 μg/plate), the “Ames test bacterial counts” value was 546 ± 26.9.
